Assay results published in patent publication US20250197372A1 (priority 2020, published 2025).

What was measured:
Type in all cases: biochemical
[1] = target: T1, recombinant human GBA (beta-glucocerebrosidase) (Homo sapiens, UniProt P04062); experiment: Beta-glucocerebrosidase (GBA, glucosylceramidase) assay (4-methylumbelliferyl-beta-D-pyranoside substrate, fluorescence)
T1 sequence (P04062 40-536): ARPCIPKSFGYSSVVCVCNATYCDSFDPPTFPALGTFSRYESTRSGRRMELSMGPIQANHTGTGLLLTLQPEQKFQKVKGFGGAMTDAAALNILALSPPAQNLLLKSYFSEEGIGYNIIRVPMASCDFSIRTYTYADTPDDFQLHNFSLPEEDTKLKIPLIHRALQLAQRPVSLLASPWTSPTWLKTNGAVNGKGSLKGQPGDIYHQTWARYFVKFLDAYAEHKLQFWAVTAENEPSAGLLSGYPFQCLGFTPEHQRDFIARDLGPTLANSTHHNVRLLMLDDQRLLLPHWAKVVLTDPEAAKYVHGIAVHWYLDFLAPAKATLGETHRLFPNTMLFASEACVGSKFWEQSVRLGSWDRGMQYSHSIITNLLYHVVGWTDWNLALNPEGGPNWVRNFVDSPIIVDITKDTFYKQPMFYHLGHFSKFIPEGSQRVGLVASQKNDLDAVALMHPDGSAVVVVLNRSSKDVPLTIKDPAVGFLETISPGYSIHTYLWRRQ
Summary of the method: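 IC50 by four-parameter fit of percent inhibition, with product fluorescence (365/440 nm) read after a glycine/NaOH pH 10 stop. Compound and commercial recombinant human enzyme were incubated 60 min at 37 °C before a further 60 min at 37 °C with 4-methylumbelliferyl-beta-D-pyranoside substrate.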

[2] = target: recombinant human GAA (acid alpha-glucosidase) (Homo sapiens, UniProt P10253); experiment: Acid alpha-glucosidase (GAA) assay (4-methylumbelliferyl-alpha-D-pyranoside substrate, fluorescence)
Summary of the method: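 IC50 from 4-PL curve fit of percent inhibition, based on fluorescence (365/440 nm) of released methylumbelliferone relative to uninhibited enzyme. Compound dilutions and human GAA incubated 60 min, 37 °C, before 20 min substrate reaction at 37 °C, quenched at pH 10.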

[3] = target: rat maltase (partially purified alpha-glucosidase from intestinal rat powder); experiment: Intestinal alpha-glucosidase assay, maltose substrate (Glucose GO Kit)
Summary of the method: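 Enzyme from intestinal rat powder, partially purified, is exposed to compound for 60 min at 37 °C. Disaccharide substrate (maltose or sucrose respectively) then reacts 30 min at 37 °C. Heat-stopped samples are assayed for glucose, and percent inhibition versus concentration gives IC50 via 4-PL.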

[4] = target: rat sucrase (partially purified alpha-glucosidase from intestinal rat powder) (Rattus norvegicus, UniProt P23739); experiment: Intestinal alpha-glucosidase assay, sucrose substrate (Glucose GO Kit)
Summary of the method: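 Glucose release is the read-out: compounds at multiple dilutions are first held with partially purified rat intestinal alpha-glucosidase for 60 min at 37 °C, after which maltose or sucrose substrate reacts for 30 min at 37 °C before a 5 min 90 °C stop. IC50 comes from a four-parameter logistic fit.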

[5] = target: T2, recombinant alpha-glucosidase II (murine full-length glucosidase II, alpha and beta subunits, Glu 2) (Mus musculus, UniProt Q8BHN3); experiment: Alpha-glucosidase II assay (4-methylumbelliferyl-alpha-D-pyranoside substrate, fluorescence); conditions: Glucosidase 2; read-out: Glu2 IC50
T2 construct: made in house; host or cells: HEK-293T cells transduced with BacMam viruses (75% alpha, 25% beta); protein harvested from culture supernatant
T2 sequence (O08795 15-521): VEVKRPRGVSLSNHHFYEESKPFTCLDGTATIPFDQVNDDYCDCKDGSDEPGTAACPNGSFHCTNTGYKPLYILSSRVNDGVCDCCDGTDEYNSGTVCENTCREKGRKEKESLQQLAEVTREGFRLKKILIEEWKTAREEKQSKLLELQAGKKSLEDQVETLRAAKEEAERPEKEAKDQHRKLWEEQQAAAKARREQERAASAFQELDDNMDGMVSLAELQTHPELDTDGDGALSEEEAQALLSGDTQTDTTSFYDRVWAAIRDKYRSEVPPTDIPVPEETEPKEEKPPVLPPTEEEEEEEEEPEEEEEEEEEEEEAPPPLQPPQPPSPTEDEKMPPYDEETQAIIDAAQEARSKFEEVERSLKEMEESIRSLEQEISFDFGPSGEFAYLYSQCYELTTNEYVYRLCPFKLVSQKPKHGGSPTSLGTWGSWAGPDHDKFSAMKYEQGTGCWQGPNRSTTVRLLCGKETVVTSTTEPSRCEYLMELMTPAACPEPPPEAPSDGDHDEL
T2 sequence (Q8BHN3 33-944): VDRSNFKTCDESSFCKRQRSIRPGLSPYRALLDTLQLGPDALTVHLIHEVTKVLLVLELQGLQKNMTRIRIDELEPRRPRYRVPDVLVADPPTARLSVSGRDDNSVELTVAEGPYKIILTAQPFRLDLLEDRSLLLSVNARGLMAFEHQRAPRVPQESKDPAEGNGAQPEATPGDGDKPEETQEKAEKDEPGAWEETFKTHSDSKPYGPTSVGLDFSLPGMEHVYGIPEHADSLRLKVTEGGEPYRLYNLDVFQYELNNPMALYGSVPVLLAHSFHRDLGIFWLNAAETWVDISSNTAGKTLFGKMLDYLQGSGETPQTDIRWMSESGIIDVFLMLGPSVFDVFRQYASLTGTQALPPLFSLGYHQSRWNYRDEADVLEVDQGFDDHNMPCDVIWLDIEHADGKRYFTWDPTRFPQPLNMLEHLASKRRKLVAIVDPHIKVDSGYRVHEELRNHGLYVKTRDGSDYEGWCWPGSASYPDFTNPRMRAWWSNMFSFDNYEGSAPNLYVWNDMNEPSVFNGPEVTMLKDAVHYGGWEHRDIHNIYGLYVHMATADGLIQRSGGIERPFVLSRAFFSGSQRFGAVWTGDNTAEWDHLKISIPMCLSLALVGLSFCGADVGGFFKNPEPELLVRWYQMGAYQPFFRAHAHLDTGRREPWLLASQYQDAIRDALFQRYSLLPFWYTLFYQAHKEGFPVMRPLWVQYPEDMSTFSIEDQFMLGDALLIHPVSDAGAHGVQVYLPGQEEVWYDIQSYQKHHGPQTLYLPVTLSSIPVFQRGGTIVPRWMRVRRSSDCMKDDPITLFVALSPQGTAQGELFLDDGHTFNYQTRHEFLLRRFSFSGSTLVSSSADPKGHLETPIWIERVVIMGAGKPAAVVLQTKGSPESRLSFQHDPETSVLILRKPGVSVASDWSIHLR

Chain of rat sucrase (partially purified alpha-glucosidase from intestinal rat powder) (P23739 whole entry): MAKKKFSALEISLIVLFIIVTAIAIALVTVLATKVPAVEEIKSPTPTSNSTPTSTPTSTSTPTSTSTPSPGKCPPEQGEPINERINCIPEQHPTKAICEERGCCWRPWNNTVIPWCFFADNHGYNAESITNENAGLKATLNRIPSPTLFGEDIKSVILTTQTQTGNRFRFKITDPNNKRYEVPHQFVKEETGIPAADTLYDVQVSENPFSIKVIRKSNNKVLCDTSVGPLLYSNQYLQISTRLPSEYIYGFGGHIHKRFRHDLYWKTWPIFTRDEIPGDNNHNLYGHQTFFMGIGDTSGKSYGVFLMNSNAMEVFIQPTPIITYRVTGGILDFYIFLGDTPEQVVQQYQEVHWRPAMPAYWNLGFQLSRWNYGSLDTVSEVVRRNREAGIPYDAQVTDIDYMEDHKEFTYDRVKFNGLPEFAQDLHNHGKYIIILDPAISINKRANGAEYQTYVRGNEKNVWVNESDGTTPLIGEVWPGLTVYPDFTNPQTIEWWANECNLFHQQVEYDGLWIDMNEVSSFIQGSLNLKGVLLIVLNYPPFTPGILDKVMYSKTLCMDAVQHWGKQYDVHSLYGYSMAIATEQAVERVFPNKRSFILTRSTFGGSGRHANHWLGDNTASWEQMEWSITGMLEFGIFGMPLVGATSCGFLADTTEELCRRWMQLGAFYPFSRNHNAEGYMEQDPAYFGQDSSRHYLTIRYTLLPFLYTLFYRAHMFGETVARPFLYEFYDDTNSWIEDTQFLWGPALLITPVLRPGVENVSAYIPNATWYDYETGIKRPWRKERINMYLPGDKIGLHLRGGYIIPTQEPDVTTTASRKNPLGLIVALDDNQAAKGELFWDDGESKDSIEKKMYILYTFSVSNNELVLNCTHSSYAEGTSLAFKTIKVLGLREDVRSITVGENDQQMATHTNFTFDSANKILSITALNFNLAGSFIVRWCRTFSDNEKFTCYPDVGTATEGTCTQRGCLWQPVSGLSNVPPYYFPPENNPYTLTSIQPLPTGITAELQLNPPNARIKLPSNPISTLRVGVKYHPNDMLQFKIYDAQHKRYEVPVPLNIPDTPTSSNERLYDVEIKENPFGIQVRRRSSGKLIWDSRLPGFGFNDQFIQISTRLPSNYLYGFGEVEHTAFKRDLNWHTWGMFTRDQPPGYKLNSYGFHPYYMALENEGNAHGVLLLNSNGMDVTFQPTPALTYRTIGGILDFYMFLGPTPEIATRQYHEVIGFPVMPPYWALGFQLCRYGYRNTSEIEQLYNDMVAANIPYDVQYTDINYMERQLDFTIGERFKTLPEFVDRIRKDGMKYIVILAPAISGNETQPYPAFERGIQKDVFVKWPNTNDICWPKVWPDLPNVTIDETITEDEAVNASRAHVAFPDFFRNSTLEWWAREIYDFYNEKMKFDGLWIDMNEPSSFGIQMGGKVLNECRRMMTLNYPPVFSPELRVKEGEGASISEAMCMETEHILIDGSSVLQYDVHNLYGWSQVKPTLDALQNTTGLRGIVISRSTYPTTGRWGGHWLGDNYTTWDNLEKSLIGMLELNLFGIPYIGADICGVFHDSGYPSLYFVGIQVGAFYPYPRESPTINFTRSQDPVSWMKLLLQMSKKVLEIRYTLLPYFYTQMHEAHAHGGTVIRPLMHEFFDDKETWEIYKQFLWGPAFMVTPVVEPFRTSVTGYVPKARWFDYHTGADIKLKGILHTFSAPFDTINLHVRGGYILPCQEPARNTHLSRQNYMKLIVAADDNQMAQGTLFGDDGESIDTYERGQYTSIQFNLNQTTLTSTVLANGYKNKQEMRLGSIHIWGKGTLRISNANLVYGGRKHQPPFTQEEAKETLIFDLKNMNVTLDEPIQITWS

| SMILES | IC50 [1] [nM] | IC50 [2] [nM] | IC50 [3] [nM] | IC50 [4] [nM] | IC50 [5] [nM] |
| --- | --- | --- | --- | --- | --- |
| Cc1cc(Br)cc(NCc2cccc(CN3C[C@H](O)[C@@H](O)[C@H](O)[C@H]3CO)c2)c1 [Compound 1021, (2R,3R,4R,5S)-1-[(3-{[(3-bromo-5-methylphenyl)amino]methyl}phenyl)methyl]-2-(hydroxymethyl)piperidine-3,4,5-triol] | 25800 | 2090 | 8 | 1 | 35000 |
| N#CCc1ccc(NCCCCCCN2C[C@H](O)[C@@H](O)[C@H](O)[C@H]2CO)c([N+](=O)[O-])c1 [Compound 1299, 2-[3-nitro-4-({6-[(2R,3R,4R,5S)-3,4,5-trihydroxy-2-(hydroxymethyl)piperidin-1-yl]hexyl}amino)phenyl]acetonitrile] | 3390 | 32 | 5 | 37 | 17 |
| OC[C@@H]1[C@@H](O)[C@H](O)[C@@H](O)CN1CCCCCCCCC1CNCCO1 (stereo partly drawn) [Compound 1311, (2R,3R,4R,5S)-2-(hydroxymethyl)-1-[8-(morpholin-2-yl)octyl]piperidine-3,4,5-triol] | 26200 | 747 | < 10 | 1010 | 197 |
| COc1cc(NCCCCCCN2C[C@H](O)[C@@H](O)[C@H](O)[C@H]2CO)cc(-c2ncc[nH]2)c1 [Compound 1219, (2R,3R,4R,5S)-2-(hydroxymethyl)-1-(6-{[3-(1H-imidazol-2-yl)-5-methoxyphenyl]amino}hexyl)piperidine-3,4,5-triol] | 8670 | 89 | 10 | 64 | 18 |
| CN(C)Cc1ccc(NCCCCCCN2C[C@H](O)[C@@H](O)[C@H](O)[C@H]2CO)c(C#N)c1 [Compound 1257, 5-[(dimethylamino)methyl]-2-({6-[(2R,3R,4R,5S)-3,4,5-trihydroxy-2-(hydroxymethyl)piperidin-1-yl]hexyl}amino)benzonitrile] | 6530 | 73 | 8 | 70 | 19 |
| O=S(=O)(Nc1cc(-c2ncccn2)ccc1NCCCCCCN1C[C@H](O)[C@@H](O)[C@H](O)[C@H]1CO)C1CC1 [Compound 1227, N-[5-(pyrimidin-2-yl)-2-({6-[(2R,3R,4R,5S)-3,4,5-trihydroxy-2-(hydroxy-methyl)piperidin-1-yl]hexyl}amino)phenyl]cyclopropanesulfonamide] | 592 | 82 | 12 | 104 | 17 |
| Nc1ccc(NCCn2cc(CCN3C[C@H](O)[C@@H](O)[C@H](O)[C@H]3CO)nn2)c([N+](=O)[O-])c1Cl [Compound 1253, (2R,3R,4R,5S)-1-[2-(1-{2-[(4-amino-3-chloro-2-nitrophenyl)amino]ethyl}-1H-1,2,3-triazol-4-yl)ethyl]-2-(hydroxymethyl)piperidine-3,4,5-triol] | > 100000 | 664 | 777 | 3440 | 225 |
| [N-]=[N+]=Nc1ccc(NCCCCCCN2C[C@H](O)[C@@H](O)[C@H](O)[C@H]2CO)c(C(N)=O)c1 [Compound 1296, 5-azido-2-({6-[(2R,3R,4R,5S)-3,4,5-trihydroxy-2-(hydroxymethyl)piperidin-1-yl]hexyl}amino)benzamide] | 3260 | 124 | < 10 | 494 | 29 |
| COCCc1ccc(CCCN2C[C@H](O)[C@@H](O)[C@H](O)[C@H]2CO)cc1 [Compound 1308, (2R,3R,4R,5S)-2-(hydroxymethyl)-1-{3-[4-(2-methoxyethyl)phenyl]propyl}piperidine-3,4,5-triol] | 50900 | 1680 | 88 | 331 | 125 |
| [N-]=[N+]=Nc1ccc(N2CC(OCCN3C[C@H](O)[C@@H](O)[C@H](O)[C@H]3CO)C2)c([N+](=O)[O-])c1 [Compound 1252, (2R,3R,4R,5S)-1-(2-{[1-(4-azido-2-nitrophenyl)azetidin-3-yl]oxy}ethyl)-2-(hydroxymethyl)piperidine-3,4,5-triol] | 8670 | 141 | 37 | 80 | 82 |
| Cc1cc(NCc2cccc(CN3C[C@H](O)[C@@H](O)[C@H](O)[C@H]3CO)n2)cc(-c2ncccn2)c1 [Compound 1322, (2R,3R,4R,5S)-2-(hydroxymethyl)-1-{[6-({[3-methyl-5-(pyrimidin-2-yl)phenyl]amino}methyl)pyridin-2-yl]methyl}piperidine-3,4,5-triol] | 99000 | 1110 | 388 | 481 | 32400 |
| OC[C@@H]1[C@@H](O)[C@H](O)[C@@H](O)CN1CCCCCCNc1cc(Cl)cc(-c2ncccn2)c1 [Compound 1212, (2R,3R,4R,5S)-1-(6-{[3-chloro-5-(pyrimidin-2-yl)phenyl]amino}hexyl)-2-(hydroxymethyl)piperidine-3,4,5-triol] | 386 | 47 | 2 | 89 | 5 |
| Cc1cc(NCc2cccc(CN3C[C@H](O)[C@@H](O)[C@H](O)[C@H]3CO)n2)cc(-c2ccco2)c1 [Compound 1334, (2R,3R,4R,5S)-1-{[6-({[3-(furan-2-yl)-5-methylphenyl]amino}methyl)pyridin-2-yl]methyl}-2-(hydroxymethyl)piperidine-3,4,5-triol] | > 100000 | 714 | 224 | 336 | > 100000 |
| NS(=O)(=O)c1cc(-c2ncccn2)ccc1NCCCCCCN1C[C@H](O)[C@@H](O)[C@H](O)[C@H]1CO [Compound 1265, 5-(pyrimidin-2-yl)-2-({6-[(2R,3R,4R,5S)-3,4,5-trihydroxy-2-(hydroxymethyl)piperidin-1-yl]hexyl}amino)benzene-1-sulfonamide] | 5080 | 35 | 5 | 98 | 12 |
| O=[N+]([O-])c1cc(Br)ccc1NCc1cccc(CN2C[C@H](O)[C@@H](O)[C@H](O)[C@H]2CO)c1 [Compound 1029, (2R,3R,4R,5S)-1-[(3-{[(4-bromo-2-nitrophenyl)-amino]methyl}phenyl)methyl]-2-(hydroxymethyl)piperidine-3,4,5-triol] | 52300 | 1330 | 10 | < 1 | 20400 |
| Cc1cc(NCc2cnc(CN3C[C@H](O)[C@@H](O)[C@H](O)[C@H]3CO)cn2)cc(N2CCOCC2)c1 [Compound 1332, (2R,3R,4R,5S)-2-(hydroxymethyl)-1-{[5-({[3-methyl-5-(morpholin-4-yl)phenyl]amino}methyl)pyrazin-2-yl]methyl}piperidine-3,4,5-triol] | > 100000 | 165 | 573 | 3500 | > 100000 |
| NC(=O)c1cc(-c2ncccn2)ccc1NCCCCCCN1C[C@H](O)[C@@H](O)[C@H](O)[C@H]1CO [Compound 1266, 5-(pyrimidin-2-yl)-2-({6-[(2R,3R,4R,5S)-3,4,5-trihydroxy-2-(hydroxymethyl)piperidin-1-yl]hexyl}amino)benzamide] | 6340 | 103 | 2 | 140 | 7 |
| Cc1cc(NCc2ccc(CN3C[C@H](O)[C@@H](O)[C@H](O)[C@H]3CO)cc2)cc(-n2nccn2)c1 [Compound 1316, (2R,3R,4R,5S)-2-(hydroxymethyl)-1-{[4-({[3-methyl-5-(2H-1,2,3-triazol-2-yl)phenyl]amino}methyl)phenyl]methyl}piperidine-3,4,5-triol] | > 100000 | 94 | 6 | 14 | 194 |
| CN(C)Cc1ccc(NCCCCCCN2C[C@H](O)[C@@H](O)[C@H](O)[C@H]2CO)c(C(F)(F)F)c1 [Compound 1259, (2R,3R,4R,5S)-1-[6-({4-[(dimethylamino)methyl]-2-(trifluoromethyl)phenyl}amino)hexyl]-2-(hydroxymethyl)piperidine-3,4,5-triol] | 1350 | 238 | 20 | 417 | 72 |
